Where a name gives a salt, the structure may show the parent alone. Read-outs that look alike come from different tables or passages of the source.

The values that follow come from EP4585587A1, “PROPIONIC ACID DERIVATIVE AND USE THEREOF IN MEDICINE” (priority 2022, dated 2024).

Data set [1] concerns integrin α4β1. Nature of the data set: Integrin α4β1-mediated cell adhesion assay (Jurkat cells on VCAM). In kind it is cell-based. As to the method:
VCAM was formulated into a final concentration of 0.5 µg/ml with a coating buffer, 50 µl of the solution was transferred to a 96-well plate, and the plate was coated with same at 4°C overnight. The plate was washed with coating buffer three times, then 150 µl of a blocking solution (coating buffer containing 1% BSA) was added, and the plate was blocked at 37°C for 1 h. Jurkat cells were collected, washed twice using DPBS buffer, and then resuspended to 4 × 10^6 cells/ml with an action buffer. 50 µl of the cell suspension was transferred to a 96-well plate so that the cell density reached 2 × 10^5 cells/well. Then 1 µl of the test compound at different concentration or DMSO was added and the plate was incubated at 37°C for 1 h. The plate was washed with coating buffer to remove non-adherent cells. 50 µl of a substrate (4-nitrophenyl-N-acetyl-β-D-glucosaminide) was added and the plate was incubated at 37°C for 2 h. Finally, 90 µl of a termination solution (50 mM glycine and 5 mM EDTA, pH 10.4) was added. The OD value of the plate was read at 405 nm. • Coating buffer: DMEM+ 20 mM HEPES+ 0.4 mM MnCl2 • Action buffer: DMEM+ 20 mM HEPES+ 0.1% BSA+0.4 mM MnCl2 • DMEM: dulbecco's modified eagle medium; • HEPES: 2-[4-(2-hydroxyethyl)piperazin-1-yl]ethanesulfonic acid Table 1 Results of effects of compounds on α4β7- and α4β1-mediated cell adhesion

The target in data set [2] is T1, integrin α4β7 (Homo sapiens, UniProt P13612+P26010).
T1 sequence (P13612 34-1032): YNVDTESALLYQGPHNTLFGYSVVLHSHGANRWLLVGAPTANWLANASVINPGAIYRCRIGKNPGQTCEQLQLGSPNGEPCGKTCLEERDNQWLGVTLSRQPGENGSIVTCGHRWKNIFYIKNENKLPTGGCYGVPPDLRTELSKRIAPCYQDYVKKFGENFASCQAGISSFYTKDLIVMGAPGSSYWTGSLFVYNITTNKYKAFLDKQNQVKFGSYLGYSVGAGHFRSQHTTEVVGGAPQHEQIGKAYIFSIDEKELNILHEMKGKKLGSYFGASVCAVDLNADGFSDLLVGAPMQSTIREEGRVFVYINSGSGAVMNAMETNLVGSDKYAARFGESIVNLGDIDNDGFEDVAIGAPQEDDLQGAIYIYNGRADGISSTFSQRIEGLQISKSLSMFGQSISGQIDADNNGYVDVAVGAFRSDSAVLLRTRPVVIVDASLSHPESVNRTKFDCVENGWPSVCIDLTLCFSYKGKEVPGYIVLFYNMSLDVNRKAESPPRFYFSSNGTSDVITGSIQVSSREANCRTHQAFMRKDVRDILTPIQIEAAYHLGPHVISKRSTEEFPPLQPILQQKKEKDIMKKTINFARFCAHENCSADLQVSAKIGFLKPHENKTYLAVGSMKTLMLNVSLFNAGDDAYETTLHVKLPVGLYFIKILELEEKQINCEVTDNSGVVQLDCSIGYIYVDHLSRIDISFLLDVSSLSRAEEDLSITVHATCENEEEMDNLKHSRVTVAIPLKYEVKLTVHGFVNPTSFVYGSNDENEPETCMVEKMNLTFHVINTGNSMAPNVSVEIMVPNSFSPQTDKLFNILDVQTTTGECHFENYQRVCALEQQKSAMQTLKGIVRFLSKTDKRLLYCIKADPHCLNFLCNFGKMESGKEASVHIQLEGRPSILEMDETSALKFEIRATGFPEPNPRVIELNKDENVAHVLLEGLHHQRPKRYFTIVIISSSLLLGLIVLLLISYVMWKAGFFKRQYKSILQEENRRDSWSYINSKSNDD
T1 sequence (P26010 20-798): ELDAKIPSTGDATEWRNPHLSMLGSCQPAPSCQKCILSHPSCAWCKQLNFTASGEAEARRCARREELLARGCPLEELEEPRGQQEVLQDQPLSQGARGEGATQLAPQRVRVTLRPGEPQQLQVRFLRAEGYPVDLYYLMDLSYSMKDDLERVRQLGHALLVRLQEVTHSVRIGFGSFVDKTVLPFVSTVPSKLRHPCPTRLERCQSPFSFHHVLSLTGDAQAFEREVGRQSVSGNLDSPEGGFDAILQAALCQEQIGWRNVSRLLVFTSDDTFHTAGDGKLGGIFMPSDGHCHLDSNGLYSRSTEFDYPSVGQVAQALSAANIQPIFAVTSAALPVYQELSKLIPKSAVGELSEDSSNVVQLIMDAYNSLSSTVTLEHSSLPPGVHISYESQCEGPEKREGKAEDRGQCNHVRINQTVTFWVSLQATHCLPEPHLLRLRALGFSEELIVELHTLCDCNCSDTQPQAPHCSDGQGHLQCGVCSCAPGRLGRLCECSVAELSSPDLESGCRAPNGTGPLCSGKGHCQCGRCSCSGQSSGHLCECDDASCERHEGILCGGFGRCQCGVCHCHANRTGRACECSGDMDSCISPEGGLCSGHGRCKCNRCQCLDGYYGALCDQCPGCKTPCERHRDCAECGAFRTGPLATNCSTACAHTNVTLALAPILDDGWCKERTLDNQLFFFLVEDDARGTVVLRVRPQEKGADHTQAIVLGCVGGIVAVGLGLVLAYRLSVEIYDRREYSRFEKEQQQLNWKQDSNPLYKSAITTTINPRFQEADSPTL
The data set can be described thus: Integrin α4β7 cell adhesion assay (RPMI8866 cells on MAdCAM-1). In kind it is cell-based. As to the method:
MAdCAM-1 was formulated with TBS buffer to a final concentration of 2 µg/ml, 50 µl of the solution was transferred to a 96-well plate, and the plate was coated with same at 4°C overnight. The plate was washed with TBS buffer three times, then 150 µl of a blocking solution (TBS buffer containing 1% BSA) was added, and the plate was blocked at 37°C for 1 h. […] 50 µl of the cell suspension was transferred to a 96-well plate so that the cell density reached 2×10^5 cells/well. Then 1 µl of the compound at different concentrations or DMSO was added and the plate was incubated at 37°C for 1 h or 2 h. The plate was washed with TBS buffer to remove non-adherent cells. 50 µl of a substrate (4-nitrophenyl-N-acetyl-β-D-glucosaminide) was added and the plate was incubated at 37°C for 2 h. […] The IC50 value was calculated using GraphPad Prism 6 software.

Data set [3] in a line: Test of stability in liver microsomes. It is filed as in vitro ADME. Particulars: Rat liver microsomes, 1 µM, 37°C, NADPH. In general terms: Liver microsomes are a subcellular fraction often used to study metabolism.
Method: (§1) In this experiment, liver microsomes of three species, including monkey, rat and mouse, were used as in vitro models to evaluate the metabolic stability of the test compound.
(§2) At 37°C, 1 µM of the test compound was co-incubated with microsomal protein and coenzyme NADPH. At given time points of the reaction (5 min, 10 min, 20 min, 30 min, and 60 min), the reaction was terminated by adding ice-cold acetonitrile containing an internal standard. The LC-MS/MS method was used to measure the concentration of the test compound in the sample. T1/2 was calculated using the natural logarithm (In) of the residual rate of the drug in the incubation system and the incubation time. In addition, the intrinsic clearance in liver microsomes CLint(mic) and the intrinsic clearance in liver CLint(Liver) were further calculated.
Data set [4] is described as follows: Test of stability in liver microsomes. In kind it is in vitro ADME. Particulars: Monkey liver microsomes, 1 µM, 37°C, NADPH.
Method: as §1, §2
The nature of data set [5]: Pharmacokinetic test in mice. In kind it is in vivo. Particulars: male BALB/c mice, plasma. As to the method: Experimental animals: male BALB/c mice, 20-25 g, 6 mice/compound. purchased from Chengdu Ddossy Experimental Animals Co., Ltd.
Experimental design: on the day of the test, 6 BALB/c mice were randomly grouped according to their body weights. The animals were fasted with water available for 12 to 14 h one day before the administration and were fed 4 h after the administration. Table 2. Administration information
Before and after the administration, 0.06 mL of blood was taken from the orbit of the animals under isoflurane anesthesia and placed in an EDTAK2 centrifuge tube. The blood was centrifuged at 5000 rpm and 4°C for 10 min to collect plasma. The blood collection time points for the intravenous group and intragastric group were both 0 min, 5 min, 15 min, 30 min, 1 h, 2 h, 4 h, 6 h, 8 h, and 24 h. Before analysis and detection, all samples were stored at -80°C, and the samples were quantitatively analyzed by LC-MS/MS.

Data set [6] in a line: Test of stability in liver microsomes. It is filed as in vitro ADME, mouse. The following applies: Mice liver microsomes, 1 µM, 37°C, NADPH.
Method: as §1, §2
[7] abbreviates: selectivity ratio of Jurkat (α4β1)/VCAM-1 IC50 to RPMI-8866 (α4β7)/MadCAM-1 IC50.
Setting [8] is: RPMI8866 cells, MAdCAM-1 coated plate, reported as class symbol, read-out: RPMI-8866 (α4β7)/MadCAM-1 IC50.
[9] abbreviates: Jurkat cells, VCAM coated plate; read-out: Jurkat (α4β1)/VCAM-1 IC50.

In the case of `COc1cc(C)c(-c2c(F)c(C(CC(=O)O)NC(=O)C(CC(C)C)n3cc(CCN(C)C)c(C(F)(F)F)cc3=O)c(F)c3c2CCC3)c(C)c1` (single isomer, unassigned) [Compound 39-2], the IC50 was > 500 nM in data set [1] (read-out: Jurkat (α4β1)/VCAM-1 IC50; Jurkat cells, VCAM coated plate) and < 10 nM in data set [2]. Further, the α4β1/α4β7 in data set [1] (setting [7]) is 213.
`Cc1cc(-c2c(C)cc(F)cc2C)cc([C@H](CC(=O)O)NC(=O)[C@H](CC(C)C)n2cc(CCN(C)C)c(C(F)(F)F)cc2=O)c1F` [Control compound A]: the results for the “Test compound after 1h incubation Remaining% (T=60min)” value in data set [3], in data set [4] and in data set [6] were 31.9%, 1.8% and 42.6%, respectively. In data set [1] (setting [7]), the α4β1/α4β7 was found to be 50.4. In data set [5] (IV: 1 mg/kg), this molecule gave a CL of 56.0 mL/min/kg. In data set [5] (PO: 10 mg/kg), this molecule yielded an AUC of 830 ng·h/mL.
`Cc1cc(F)cc(C)c1-c1cc(C(CC(=O)O)NC(=O)C(CC(C)C)n2cc(CCN(C)CC3CC3(F)F)c(C(F)(F)F)cc2=O)cc2c1CCC2` (single isomer, unassigned) [Compound 1-2]: the α4β1/α4β7 in data set [1] (setting [7]) was >50. Also, the IC50 in data set [2] (setting [8]) was < 10 nM.
Take `CC#Cc1cc(-c2c(C)cccc2C)c(F)c(C(CC(=O)O)NC(=O)C(CC(C)C)n2cc(CC3CN(CC4CC4)C3)c(C(F)(F)F)cc2=O)c1F` (single isomer, unassigned) [Trifluoroacetate salt of compound 19-2]: the IC50 is > 500 nM in data set [1] (setting [9]) and < 10 nM in data set [2] (setting [8]). For the same molecule, the α4β1/α4β7 in data set [1] (setting [7]) was determined as 323.
The corresponding values for `CC#Cc1cc(-c2c(C)cccc2C)c(F)c(C(CC(=O)O)NC(=O)C(CC(C)C)n2cc(CC3CCN(C(C)C)CC3)c(C(F)(F)F)cc2=O)c1F` (single isomer, unassigned) [Trifluoroacetate salt of compound 23-2] are > 500 nM, < 10 nM and 310.

One may read the AUC as concentration integrated over time.
